Test results from EP0263968A2, “Use of opiate antagonists in the manufacture of agents for the diagnosis and therapy of hypothalamic function disorders” (Ferring Arzneimittel GmbH, priority 1986, dated 1988).

Legend:
[1] = test system: Patientinnen mit hypothalamischer Amenorrhoe; assay: Oral naltrexone treatment of patients with hypothalamic amenorrhoea (serial blood sampling, ultrasound); assay type: in vivo
Experimental: Die basale Gonadotropin Sekretion von Patientinnen, die an hypothalamischer Amenorrhoe litten, wurde durch Bestimmung von LH und FSH, Prolactin und Ovarien-Steroiden in Blutproben bewertet, die alle zehn Minuten während 24 Stunden entnommen wurden. Naltrexon wurde dann in einer Dosis von 50 mg pro Tag während 24 oder 28 Tagen verabreicht. 5 Tage und 14 Tage nach dem Beginn der Naltrexonverabreichung wurden wiederholte Blutproben entnommen. An den übrigen Tagen wurden täglich Blutproben entnommen und es wurde eine Ultraschalluntersuchung nach der Naltrexonverabreichung sowie einige Tage danach durchgeführt. Es wurden folgende Ergebnisse ermittelt:
Auf die Verabreichung von Naltrexon folgte eine Zunahme der Frequenz und der Amplitude der pulsatielen Gonadotropin Sekretion sowie eine Zunahme der mittleren LH und FSH Serumkonzentration sowie der Entwicklung der Gonaden-Steroid Sekretion und der Follikel, was durch Ultraschall festgestellt wurde.

[2] = test system: Patientinnen mit normalem Zyklus; assay: Naltrexone administration to patients with normal cycle; assay type: in vivo
Description: Es ergibt sich daher die Möglichkeit, Opiat-Antagonisten zur Diagnose und Therapie hypothalamischer Funktionsstörungen einzusetzen, insbesondere bei solchen, bei denen zu vermuten ist, daß eine Hemmung der entsprechenden Partialfunktion durch vermehrt gebildete Endorphine verursacht ist.

[3] = oral administration possible; cited from earlier work
[4] = test system: Patientinnen mit hypothalamischer Amenorrhoe; assay: Continuous naloxone infusion in patients with hypothalamic amenorrhoea; assay type: in vivo; details: duration 6 to 52 hours
Description: Im Rahmen der vorliegenden Erfindung wurden Untersuchungen an Patientinnen mit hypothalamischer Amenorrhoe durchgeführt. Diese Untersuchungen haben überraschenderweise gezeigt, daß durch die Gabe von Opiat-Antagonisten eine Zunahme von Frequenz und Amplitude der LH und FSH Sekretion erreicht wird. Es kann daher davon ausgegangen werden, daß die endogene GnRH Sekretion durch Opiat-Antagonisten vermehrt wird.
Beispielsweise wurde Naloxon bei Patientinnen mit hypothalamischer Amenorrhoe infundiert. Die Infusionsdauer betrug 6 bis 52 Stunden.

Gonadotropine = assay: Diagnostic test: intravenous naloxone in secondary and primary amenorrhoea; assay type: in vivo
Description: Somit zeigt dieser diagnostische Test, daß bei den Fällen von sekundärer Amenorrhoe die Suppression der Gonadotropine im Serum auf einer erhöhten endogenen Opiataktivität beruht, die therapeutisch durch den längerfristigen Einsatz von Antagonisten gedämpft werden kann.

[5] = 50 mg per day for 24 or 28 days
[6] = patients with hypothalamic amenorrhoea

SMILES: O=C1CC[C@@]2(O)[C@H]3Cc4ccc(O)c5c4[C@@]2(CCN3CC2CC2)C1O5 (some centres unmarked) [Naltrexon, 17-(Cyclopropylmethyl)-4,5-epoxy-3,14-dihydroxymorphinan-6-on]
- Frequenz und Amplitude der pulsatielen Gonadotropin Sekretion [1, 5]: Zunahme
- mittlere LH und FSH Serumkonzentration [1, 5]: Zunahme
- Patientinnen, die ovulierten ([1]; 50 mg per day for 24 or 28 days, 3 patients): Eine von 3
- Menstruation nach Absetzen des Mittels ([1]; 50 mg per day for 24 or 28 days, after withdrawal): Sämtliche Patientinnen menstruierten
- Entwicklung der Gonaden-Steroid Sekretion und der Follikel ([1]; 50 mg per day for 24 or 28 days, follicles by ultrasound): Zunahme
- menstrueller Zyklus ([1]; oral, patients with hypothalamic amenorrhoea): Normalisierung
- Gonadotropin-Sekretion [1, 6]: Normalisierung
- Ovulation, Bildung eines Corpus luteum [1, 6]: zur Ovulation und zur Bildung eines Corpus luteum
- Ablauf des Zyklus [2]: keinen Einfluß
- Sekretion der gonadotropen Hormone [2]: keinen Einfluß
- Verweildauer im Plasma [3]: lange Verweildauer im Plasma

SMILES: C=CCN1CC[C@]23c4c5ccc(O)c4OC2C(=O)CC[C@@]3(O)[C@H]1C5 (some centres unmarked) [Naloxon, 17-Allyl-4,5-epoxy-3,14-dihydroxymorphinan-6-on]
- Frequenz und Amplitude der LH und FSH Sekretion [4]: deutliche Zunahme
- Anstieg der Gonadotropine (Gonadotropine; some cases of primary amenorrhoea): nicht oder nur in wesentlich geringerem Ausmaß
- Anstieg der Gonadotropine (Gonadotropine; some cases of secondary amenorrhoea): deutlichen Anstieg
